Measurements from ChEMBL document CHEMBL1201862, “PubChem BioAssay data set” (2004).
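How tested: cells in 96-well plates exposed to compound for 48 hours at five concentrations. GI50 is the concentration that inhibits growth by half.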 The source made the active and inactive calls. Rule as the data show it: active = GI50 up to about 1.1 µM and inactive = higher.

Legend:
Test in all cases: NCI tumour cell line growth inhibition, 48 h
HOP-92 = system: HOP-92
SN12C = system: SN12C
NCI-H226 = system: NCI-H226
786-0 = system: 786-0
CAKI-1 = system: CAKI-1
NCI-H460 = system: NCI-H460
UACC-257 = system: UACC-257
SK-OV-3 = system: SK-OV-3
OVCAR-5 = system: OVCAR-5
HT-29 = system: HT-29
PC-3 = system: PC-3
T47D = system: T47D
A549 = system: A549
HCC 2998 = system: HCC 2998
SF-268 = system: SF-268
SK-MEL-5 = system: SK-MEL-5
UACC-62 = system: UACC-62
MDA-MB-231 = system: MDA-MB-231
M14 = system: M14
RPMI-8226 = system: RPMI-8226

CC(=O)C1=C(O)/C(=C\c2ccco2)OC1=O
GI50 (HOP-92): > 10 µM (inactive)
GI50 (SN12C): > 10 µM (inactive)
GI50 (NCI-H226): > 10 µM (inactive)
GI50 (786-0): > 10 µM (inactive)
GI50 (CAKI-1): > 10 µM (inactive)
GI50 (NCI-H460): > 10 µM (inactive)
GI50 (UACC-257): > 10 µM (inactive)
GI50 (SK-OV-3): > 10 µM (inactive)
GI50 (OVCAR-5): > 10 µM (inactive)
GI50 (HT-29): > 10 µM (inactive)
GI50 (PC-3): > 10 µM (inactive)
GI50 (T47D): > 10 µM (inactive)
GI50 (A549): > 10 µM (inactive)
GI50 (HCC 2998): > 10 µM (inactive)
GI50 (SF-268): > 10 µM (inactive)
GI50 (SK-MEL-5): > 10 µM (inactive)
GI50 (UACC-62): > 10 µM (inactive)
GI50 (MDA-MB-231): > 10 µM (inactive)
GI50 (M14): > 10 µM (inactive)
GI50 (RPMI-8226): > 10 µM (inactive)

CCN(CC)c1ccc(/C=C2\CCc3ccc([N+](=O)[O-])cc3C2=O)cc1
GI50 (HOP-92): > 100 µM (inactive)
GI50 (SN12C): 2.99 µM (inactive)
GI50 (NCI-H226): > 100 µM (inactive)
GI50 (786-0): 2.84 µM (inactive)
GI50 (CAKI-1): > 26.6 µM (inactive)
GI50 (NCI-H460): 3.84 µM (inactive)
GI50 (SK-OV-3): 4.54 µM (inactive)
GI50 (OVCAR-5): > 100 µM (inactive)
GI50 (HT-29): 0.256 µM (active)
GI50 (PC-3): 1.97 µM (inactive)
GI50 (T47D): 4.55 µM (inactive)
GI50 (A549): 4.58 µM (inactive)
GI50 (HCC 2998): 10.1 µM (inactive)
GI50 (SF-268): 14.4 µM (inactive)
GI50 (SK-MEL-5): 1.71 µM (inactive)
GI50 (UACC-62): 1.29 µM (inactive)
GI50 (MDA-MB-231): 2.61 µM (inactive)
GI50 (M14): 3.54 µM (inactive)
GI50 (RPMI-8226): 0.391 µM (active)

COC(=O)C1=NN2c3ccccc3CN([C@@H](C)c3ccccc3)C(=O)[C@@H]2C1
GI50 (HOP-92): 34.4 µM (inactive)
GI50 (SN12C): 56.1 µM (inactive)
GI50 (NCI-H226): 54.1 µM (inactive)
GI50 (786-0): 41.2 µM (inactive)
GI50 (CAKI-1): 23.2 µM (inactive)
GI50 (NCI-H460): 58.3 µM (inactive)
GI50 (UACC-257): 30.5 µM (inactive)
GI50 (SK-OV-3): > 100 µM (inactive)
GI50 (OVCAR-5): 52.1 µM (inactive)
GI50 (HT-29): 44.1 µM (inactive)
GI50 (PC-3): 31.4 µM (inactive)
GI50 (T47D): 14.1 µM (inactive)
GI50 (A549): 31.4 µM (inactive)
GI50 (HCC 2998): 48.2 µM (inactive)
GI50 (SF-268): 28.7 µM (inactive)
GI50 (SK-MEL-5): 18.7 µM (inactive)
GI50 (UACC-62): 19 µM (inactive)
GI50 (MDA-MB-231): 57 µM (inactive)
GI50 (M14): 16.5 µM (inactive)
GI50 (RPMI-8226): 24.5 µM (inactive)

CC(C)CCNC(=O)c1ccc(CNC(=O)/C=C/c2ccc3ccccc3c2)cc1
GI50 (HOP-92): > 100 µM (inactive)
GI50 (SN12C): > 100 µM (inactive)
GI50 (NCI-H226): > 100 µM (inactive)
GI50 (786-0): > 100 µM (inactive)
GI50 (CAKI-1): > 100 µM (inactive)
GI50 (NCI-H460): > 100 µM (inactive)
GI50 (UACC-257): > 100 µM (inactive)
GI50 (SK-OV-3): > 100 µM (inactive)
GI50 (OVCAR-5): > 100 µM (inactive)
GI50 (PC-3): > 100 µM (inactive)
GI50 (T47D): > 100 µM (inactive)
GI50 (A549): > 100 µM (inactive)
GI50 (HCC 2998): > 100 µM (inactive)
GI50 (SF-268): > 100 µM (inactive)
GI50 (SK-MEL-5): > 100 µM (inactive)
GI50 (UACC-62): > 100 µM (inactive)
GI50 (MDA-MB-231): > 100 µM (inactive)
GI50 (M14): 46.3 µM (inactive)
GI50 (RPMI-8226): > 100 µM (inactive)

Oc1c(C2=N[C@H]3CCCC[C@@H]3N2)ccc2ccccc12
GI50 (HOP-92): > 100 µM (inactive)
GI50 (SN12C): > 100 µM (inactive)
GI50 (NCI-H226): > 100 µM (inactive)
GI50 (786-0): > 100 µM (inactive)
GI50 (CAKI-1): > 100 µM (inactive)
GI50 (NCI-H460): > 100 µM (inactive)
GI50 (UACC-257): > 100 µM (inactive)
GI50 (SK-OV-3): > 100 µM (inactive)
GI50 (OVCAR-5): > 100 µM (inactive)
GI50 (HT-29): > 100 µM (inactive)
GI50 (PC-3): > 100 µM (inactive)
GI50 (T47D): > 100 µM (inactive)
GI50 (HCC 2998): > 100 µM (inactive)
GI50 (SF-268): > 100 µM (inactive)
GI50 (SK-MEL-5): > 100 µM (inactive)
GI50 (UACC-62): > 100 µM (inactive)
GI50 (MDA-MB-231): > 100 µM (inactive)
GI50 (M14): > 100 µM (inactive)
GI50 (RPMI-8226): > 100 µM (inactive)

C=CCC(CNC(=O)OCc1ccccc1)O[Si](C)(C)C(C)(C)C (configuration not stated)
GI50 (HOP-92): 26.2 µM (inactive)
GI50 (SN12C): 31.2 µM (inactive)
GI50 (NCI-H226): 25.9 µM (inactive)
GI50 (786-0): 29.4 µM (inactive)
GI50 (CAKI-1): 29.4 µM (inactive)
GI50 (NCI-H460): 25.6 µM (inactive)
GI50 (UACC-257): 25.4 µM (inactive)
GI50 (SK-OV-3): 61.5 µM (inactive)
GI50 (OVCAR-5): 26.3 µM (inactive)
GI50 (HT-29): 18 µM (inactive)
GI50 (PC-3): 30.3 µM (inactive)
GI50 (T47D): 22.9 µM (inactive)
GI50 (A549): 30.1 µM (inactive)
GI50 (HCC 2998): 39.5 µM (inactive)
GI50 (SF-268): 45.3 µM (inactive)
GI50 (SK-MEL-5): 16.6 µM (inactive)
GI50 (UACC-62): 23.2 µM (inactive)
GI50 (MDA-MB-231): 17.3 µM (inactive)
GI50 (M14): 26.4 µM (inactive)
GI50 (RPMI-8226): 20 µM (inactive)

Cn1c2ccc(Cl)cc2c2ccc3c(c21)C(=O)C=CC3=O
GI50 (HOP-92): > 10 µM (inactive)
GI50 (SN12C): > 10 µM (inactive)
GI50 (NCI-H226): > 10 µM (inactive)
GI50 (786-0): > 10 µM (inactive)
GI50 (CAKI-1): > 10 µM (inactive)
GI50 (NCI-H460): > 10 µM (inactive)
GI50 (UACC-257): > 10 µM (inactive)
GI50 (SK-OV-3): > 10 µM (inactive)
GI50 (OVCAR-5): > 10 µM (inactive)
GI50 (HT-29): > 10 µM (inactive)
GI50 (PC-3): > 10 µM (inactive)
GI50 (T47D): > 10 µM (inactive)
GI50 (A549): > 10 µM (inactive)
GI50 (HCC 2998): > 10 µM (inactive)
GI50 (SF-268): > 10 µM (inactive)
GI50 (SK-MEL-5): > 10 µM (inactive)
GI50 (UACC-62): > 10 µM (inactive)
GI50 (MDA-MB-231): > 10 µM (inactive)
GI50 (M14): > 10 µM (inactive)
GI50 (RPMI-8226): > 10 µM (inactive)
